# Reference: patent publication US20060116343A1, “Sphingosine kinase-1 mediates gene expression regulation of a monocyte chemoattractant protein-1 gene” (priority 2004, published 2006)
# Tests used:
# Format in all cases: cell-based, human
# [1] = test system: MCP-1 gene expression in HMVECs; experiment: cDNA microarray analysis of gene expression in stimulated HMVECs; conditions: four hours; for MCP-1 gene expression in response to stimulus (microarray): thrombin 100 nM or TNF-α 20 ng/ml
# Experimental: In an effort to rapidly assess the potential overall role of SK1 in endothelial cell function, a cDNA microarray analyses was performed in HMVEC in the absence and presence of the SK1 inhibitor DMS. The cells were stimulated through two receptor subtypes: G-protein coupled receptors, for which the Protease Activate Receptor (PAR) family was utilized with thrombin as the agonist and cytokine receptors with TNF-α as the agonist
# Cell Culture—Adult human microvascular endothelial cells (HMVECs) (Cambrex) were cultured in EGM complete media (Cambrex). Cells were used between the third and sixth passages for all studies.
# Microarray Study—Adult human microvascular endothelial cells (HMVECs) (Cambrex) were placed into culture (5% FBS) and stimulated with thrombin (100 nM) or TNF-α (20 ng/ml) in the absence or presence of DMS (10 μM), a potent inhibitor of sphingosine kinase. After four hours of stimulation, RNA was isolated (Tri-Reagent, Bio-Mol), DNAse treated and cleaned using the RNeasy maxi kit (Qiagen). Upon validation of RNA purity using the Agilent 2100 Bioanalyzer, RNA was then subjected to cDNA microarray analyses.
# A cDNA microarray containing 3563 cDNA clones was used in this study. In the gene expression studies two types of replications were used, biological and technical. Duplicate biological samples were harvested for each experimental condition for the initial microarray analyses. Additionally technical replication was employed as all samples were run in triplicate on separate microarrays. The microarray data from each sample were subjected to outlier removal based on technical replication and normalization based on both the technical and biological replication. The normalization consisted of an initial normalization between hybridization replicates within a single sample, followed by a secondary normalization across all samples within the study (Shaw et al., J Mol Microbiol Biotechnol, 2003, 5:105-122). […] After cleanup and subsequent normalizations, a single ratio was calculated for each treatment to its assigned control. […]
# [2] = test system: MCP-1 protein secretion from HMVECs; experiment: MCP-1 ELISA of HMVEC supernatant; conditions: 24 hours; for effect of inhibitor pretreatment on induced MCP-1 protein secretion: DMS 10 μM, Bay11-7092 10 μM, GF109203x 1 μM, PD98059 10 μM, stimulation with Thrombin 100 nM, PAR-1-AP 100 nM or (Thrombin 0.1 ng/ml); for MCP-1 protein secretion in response to stimulus (ELISA): thrombin 100 nM or varying concentrations of PAR-activating peptides
# Experimental: HMVECs were placed into culture and stimulated with Thrombin (100 nM) or varying concentrations of PAR-activating peptides. 24 hours later, we used ELISA to detect secretion of MCP-1 into supernatant.
# MCP-1 ELISA—HMVECs were placed into culture in 96-well dishes (2×10^3 cells/well) and grown for 24 hours in complete growth media. Cells were transfected with control non-silencing siRNA or siRNAs for hSK1 or hSK2 in serum-free Opti-MEM (Gibco) for 4 hours. Cells were then allowed to grow for 24 hours in media containing 10% FBS, after which the cells were serum starved in 0.5% FBS media overnight. Cells were subsequently stimulated with fresh 0.5% FBS containing media and incubated under various experimental conditions for an additional 24 hours. Where indicated, cells were pre-incubated with specific compound inhibitors, for 20 minutes, prior to stimulation. Supernatants were collected and analyzed by ELISA (Cell Sciences).
# HMVECs were transfected with siRNAs (1.6 μg), hSK1-specific, hSK2-specific or control non-silencing siRNAs. After 48 hours, cells were stimulated with Thrombin (100 nM), PAR-1-AP (300 μM) or PAR-4-AP (600 μM). ELISA was performed to detect MCP-1 secretion into cell supernatant. […] Furthermore, basal levels of MCP-1 protein secretion appeared to be effected as well, as the level of MCP-1 protein secretion in cells that were unstimulated or stimulated with PAR-4-AP was decreased from cells transfected with hSK1 specific siRNA.
# HMVECs were placed into culture overnight, and pretreated with inhibitors to hSK (DMS 10 μM), NF-κB (Bay11-7092 10 μM), PKC (GF109203x 1 μM), or Erk (PD98059 10 μM) prior to stimulation with Thrombin (100 nM), PAR-1-AP (TFLLRN 100 nM), or (Thrombin 0.1 ng/ml). ELISAs were performed 24 hours after stimulation to measure the amount of MCP-1 secretion. […] Furthermore we observed that NF-κB activity is a prerequisite for MCP-1 expression as well, as pretreatment with the NF-κB inhibitor, Bay11-7092, abrogated the induction of MCP-1 protein secretion by all agonists.
# HMVECs were placed into culture overnight, and pretreated with inhibitors to hSK (DMS 10 μM), NF-κB (Bay11-7092 10 μM), PKC (GF109203×1 μM), or Erk (PD98059 10 μM) prior to stimulation with 5 μM S1P. ELISAs were performed to detect the levels of secreted MCP-1 protein. […] There was no elevation of MCP-1 protein by the external addition of S1P. Therefore, we rule out a role for S1P receptors in the hSK-dependent release of MCP-1 from HMVECs.
# [3] = test system: MCP-1 transcripts in HMVECs; experiment: Quantitative RT-PCR of MCP-1 transcripts in stimulated HMVECs; conditions: thrombin 100 nM
# Text: In the presence of hSK1-specific siRNAs, induction of MCP-1 was inhibited whereas in the presence of hSK2-specific or control non-silencing siRNAs, MCP-1 induction was not affected.
# Evaluation of siRNA Transfection Efficiency and Silencing Capabilities—Small interfering RNAs (siRNAs) were designed and synthesized to target either sequences for hSK1, SEQ ID NO: 1 ([…]) or hSK2, SEQ ID NO:2 ([…]) transcripts as well as control non-silencing siRNA, SEQ ID NO:3 ([…]), which has no sequence target in the human genome (Qiagen). The oligonucleotides were fluorescein-conjugated on the 3′ end of the sense strand, which facilitated visualization of transfection efficiency by fluorescence confocal microscopy (LSM 510, Zeiss). […] For experimental studies RNA were isolated, DNAse treated and subjected to quantitative RT-PCR analyses to detect transcript levels of hSK1, hSK2, MCP-1 and control 18S transcripts using predesigned primers from Applied Biosystems. […]
# Quantitative RT-PCR—HMVECs were placed into culture overnight and stimulated with thrombin (100 nM) after which RNA was isolated and DNAse treated. TaqMan® quantitative RT-PCRs were performed in triplicate as validation of microarray analyses according to manufacturers instructions (Applied Biosystems). The quantity mean for each detector was normalized to that of the 18S detector.
molecule,measurement,setting,value
"CCCCCCCCCCCCC/C=C/[C@@H](O)[C@H](CO)N(C)C [DMS, dimethylsphingosine]",effect on thrombin- and TNF-α-induced MCP-1 gene expression (microarray),[1]; DMS 10 μM added prior to stimulation with thrombin 100 nM or TNF-α 20 ng/ml,inhibited
same,effect on thrombin- or PAR-1 agonist peptide-stimulated secretion of MCP-1 protein,[2]; HMVECs pretreated with DMS prior to stimulation,inhibited secretion of MCP-1 protein
same,effect of inhibitor pretreatment on induced MCP-1 protein secretion,[2]; HMVECs,hSK activity is required
CN(C)CCCn1cc(C2=C(c3c[nH]c4ccccc34)C(=O)NC2=O)c2ccccc21 [GF109203x],effect of inhibitor pretreatment on induced MCP-1 protein secretion,[2]; HMVECs,intermediate effect
COc1cccc(-c2cc(=O)c3ccccc3o2)c1N [PD98059],effect of inhibitor pretreatment on induced MCP-1 protein secretion,[2]; HMVECs,no effect
"CCCCCCCCCCCCC/C=C/[C@@H](O)[C@@H](N)COP(=O)(O)O [S1P, Sphingosine-1-phosphate]",MCP-1 protein secretion after external addition of S1P,"[2]; HMVECs, 5 μM S1P",no elevation
TFLLRN [PAR-1-AP],MCP-1 protein secretion in response to stimulus (ELISA),[2]; HMVECs,stimulated secretion of MCP-1
TNF-α,MCP-1 gene expression in response to stimulus (microarray),[1],induced
thrombin,MCP-1 gene expression in response to stimulus (microarray),[1],induced
same,MCP-1 transcripts in response to stimulus (quantitative RT-PCR),[3],induction of MCP-1 transcripts
same,MCP-1 protein secretion in response to stimulus (ELISA),[2]; HMVECs,augmented
